The values that follow come from US12503471B2, “Triazatricycle compounds for the treatment of autoimmune disease” (Hoffmann-La Roche Inc., priority 2019, dated 2025).

pIC50: −log10 of the molar value.

For this experiment, the target named is T1, human TLR7 (Homo sapiens, UniProt Q9NYK1).
T1 construct: host or cells: HEK293 (HEK-Blue hTLR7)
T1 sequence (Q9NYK1 27-1049): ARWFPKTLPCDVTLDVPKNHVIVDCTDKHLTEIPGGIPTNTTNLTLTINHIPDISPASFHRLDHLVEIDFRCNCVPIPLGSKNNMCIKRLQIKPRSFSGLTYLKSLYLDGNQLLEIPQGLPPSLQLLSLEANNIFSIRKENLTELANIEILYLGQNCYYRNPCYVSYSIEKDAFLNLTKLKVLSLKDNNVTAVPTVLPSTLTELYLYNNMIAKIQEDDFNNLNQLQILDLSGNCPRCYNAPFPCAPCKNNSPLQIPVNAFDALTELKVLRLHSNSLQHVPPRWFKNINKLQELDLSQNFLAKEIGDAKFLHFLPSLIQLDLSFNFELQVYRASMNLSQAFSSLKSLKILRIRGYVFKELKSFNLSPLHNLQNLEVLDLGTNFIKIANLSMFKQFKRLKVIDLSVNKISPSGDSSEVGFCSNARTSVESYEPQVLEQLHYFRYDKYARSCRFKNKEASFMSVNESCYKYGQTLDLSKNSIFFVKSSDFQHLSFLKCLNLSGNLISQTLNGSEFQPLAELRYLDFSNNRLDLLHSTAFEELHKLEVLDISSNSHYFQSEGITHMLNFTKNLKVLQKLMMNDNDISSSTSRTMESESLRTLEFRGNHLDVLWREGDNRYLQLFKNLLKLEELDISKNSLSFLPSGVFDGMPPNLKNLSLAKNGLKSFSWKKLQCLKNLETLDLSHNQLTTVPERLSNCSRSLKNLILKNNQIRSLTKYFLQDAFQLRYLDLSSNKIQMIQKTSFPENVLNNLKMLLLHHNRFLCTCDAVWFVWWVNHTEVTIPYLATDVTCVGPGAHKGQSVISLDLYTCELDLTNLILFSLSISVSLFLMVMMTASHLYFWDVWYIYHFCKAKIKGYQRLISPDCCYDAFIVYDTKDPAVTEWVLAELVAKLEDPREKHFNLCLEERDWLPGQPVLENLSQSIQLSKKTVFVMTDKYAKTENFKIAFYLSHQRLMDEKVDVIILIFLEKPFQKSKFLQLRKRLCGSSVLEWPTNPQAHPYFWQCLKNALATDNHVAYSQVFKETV
As to the kind of experiment: HEK293-Blue-hTLR-7 cells assay. It counts as cell-based. The conditions noted are these: HEK293-Blue-hTLR7 cells, R848 stimulation, 20 hrs, SEAP reporter; read-out: HEK/hTLR7 IC50. The source says:
HEK293-Blue-hTLR-7 Cells Assay:
A stable HEK293-Blue-hTLR-7 cell line was purchased from InvivoGen (Cat. #: hkb-htlr7, San Diego, Calif., USA). These cells were originally designed for studying the stimulation of human TLR7 by monitoring the activation of NF-κB. A SEAP (secreted embryonic alkaline phosphatase) reporter gene was placed under the control of the IFN-β minimal promoter fused to five NF-κB and AP-1-binding sites. The SEAP was induced by activating NF-κB and AP-1 via stimulating HEK-Blue hTLR7 cells with TLR7 ligands. Therefore the reporter expression was declined by TLR7 antagonist under the stimulation of a ligand, such as R848 (Resiquimod), for incubation of 20 hrs. The cell culture supernatant SEAP reporter activity was determined using QUANTI-Blue™ kit (Cat. #: rep-qbl, Invivogen, San Diego, Ca, USA) at a wavelength of 640 nm, a detection medium that turns purple or blue in the presence of alkaline phosphatase.
HEK293-Blue-hTLR7 cells were incubated at a density of 250,000˜450,000 cells/mL in a volume of 170 μL in a 96-well plate in Dulbecco's Modified Eagle's medium (DMEM) containing 4.5 g/L glucose, 50 U/mL penicillin, […], […], 2 mM L-glutamine, 10% (v/v) heat-inactivated fetal bovine serum with addition of 20 μL test compound in a serial dilution in the presence of final DMSO at 1% and 10 μL of 20 uM R848 in above DMEM, perform incubation under 37° C. in a CO2 incubator for 20 hrs. Then 20 μL of the supernatant from each well was incubated with 180 μL Quanti-blue substrate solution at 37° C. for 2 hrs and the absorbance was read at 620-655 nm using a spectrophotometer. The signaling pathway that TLR7 activation leads to downstream NF-κB activation has been widely accepted, and therefore similar reporter assay was modified for evaluating TLR7 antagonist.
`[2H]c1ccc2c(N3C[C@@H](C)N4Cc5nc(N6CC[C@H](N)[C@@H](OC)C6)ccc5[C@H]4C3)ccc(C#N)c2n1` [Example 12, 5-[(2S,6R)-11-[(3S,4S)-4-amino-3-methoxy-1-piperidyl]-6-methyl-4,7,10-triazatricyclo[7.4.0.02,7]trideca-1(9),10,12-trien-4-yl]-2-deuterio-quinoline-8-carbonitrile]: the pIC50 was 8.80. In the case of `[2H]c1ccc2c(N3C[C@@H](C)N4Cc5nc(N6CC[C@H](N)[C@H](OC)C6)ccc5[C@H]4C3)ccc(C#N)c2n1` [Example 13, 5-[(2S,6R)-11-[(3R,4S)-4-amino-3-methoxy-1-piperidyl]-6-methyl-4,7,10-triazatricyclo[7.4.0.02,7]trideca-1(9),10,12-trien-4-yl]-2-deuterio-quinoline-8-carbonitrile] it was 8.77; in that of `[2H]c1ccc2c(N3C[C@@H](C)N4Cc5nc(N6CC[C@H](OC)[C@@H](N)C6)ccc5[C@H]4C3)ccc(C#N)c2n1` [Example 14, 5-[(2S,6R)-11-[(3S,4S)-3-amino-4-methoxy-1-piperidyl]-6-methyl-4,7,10-triazatricyclo[7.4.0.02,7]trideca-1(9),10,12-trien-4-yl]-2-deuterio-quinoline-8-carbonitrile], 8.47; in that of `[2H]c1ccc2c(N3C[C@@H](C)N4Cc5nc(N6CC[C@@H](OC)[C@H](N)C6)ccc5[C@H]4C3)ccc(C#N)c2n1` [Example 15, 5-[(2S,6R)-11-[(3R,4R)-3-amino-4-methoxy-1-piperidyl]-6-methyl-4,7,10-triazatricyclo[7.4.0.02,7]trideca-1(9),10,12-trien-4-yl]-2-deuterio-quinoline-8-carbonitrile], 8.59. With `[2H]c1ccc2c(N3C[C@@H](C)N4Cc5nc(N6C[C@@H]7C[C@H]6CN7)ccc5[C@H]4C3)ccc(C#N)c2n1` [Example 16, 2-Deuterio-5-[(2S,6R)-11-[(1S,4S)-2,5-diazabicyclo[2.2.1]heptan-2-yl]-6-methyl-4,7,10-triazatricyclo[7.4.0.02,7]trideca-1(9),10,12-trien-4-yl]quinoline-8-carbonitrile] the figure was 8.77; with `[2H]c1ccc2c(N3C[C@@H](C)N4Cc5nc(N6C[C@H]7C[C@@H]6CN7)ccc5[C@H]4C3)ccc(C#N)c2n1` [Example 17, 2-Deuterio-5-[(2S,6R)-11-[(1R,4R)-2,5-diazabicyclo[2.2.1]heptan-2-yl]-6-methyl-4,7,10-triazatricyclo[7.4.0.02,7]trideca-1(9),10,12-trien-4-yl]quinoline-8-carbonitrile], 8.57; with `[2H]c1ccc2c(N3C[C@@H](C)N4Cc5nc(N6CCC7(CC6)CNCCO7)ccc5[C@H]4C3)ccc(C#N)c2n1` [Example 18, 2-Deuterio-5-[(2S,6R)-6-methyl-11-(1-oxa-4,9-diazaspiro[5.5]undecan-9-yl)-4,7,10-triazatricyclo[7.4.0.02,7]trideca-1(9),10,12-trien-4-yl]quinoline-8-carbonitrile], 8.89.

Take `[2H]c1ccc2c(N3C[C@@H](C)N4Cc5nc(N6CCC(C)(N)CC6)ccc5[C@H]4C3)ccc(C#N)c2n1` [Example 19, 5-[(2S,6R)-11-(4-amino-4-methyl-1-piperidyl)-6-methyl-4,7,10-triazatricyclo[7.4.0.02,7]trideca-1(9),10,12-trien-4-yl]-2-deuterio-quinoline-8-carbonitrile]: the pIC50 was 8.96. As for `C[C@@H]1CN(c2ccc(C#N)c3ncccc23)C[C@@H]2c3ccc(N4CCCNCC4)nc3CN12` [Example 20, 5-[(2S,6R)-11-(1,4-diazepan-1-yl)-6-methyl-4,7,10-triazatricyclo[7.4.0.02,7]trideca-1(9),10,12-trien-4-yl]quinoline-8-carbonitrile], the pIC50 was 8.70. `C[C@@H]1CN(c2ccc(C#N)n3nccc23)C[C@@H]2c3ccc(N4C[C@@H]5C[C@H]4CN5)nc3CN12` [Example 21, 4-[(2S,6R)-11-[(1S,4S)-2,5-diazabicyclo[2.2.1]heptan-2-yl]-6-methyl-4,7,10-triazatricyclo[7.4.0.02,7]trideca-1(9),10,12-trien-4-yl]pyrazolo[1,5-a]pyridine-7-carbonitrile]: the pIC50 is 8.15. In the case of `[2H]c1ccc2c(N3C[C@@H](C)N4Cc5nc(C6CCNCC6)ccc5[C@H]4C3)ccc(C#N)c2n1` [Example 23, 2-Deuterio-5-[(2S,6R)-6-methyl-11-(4-piperidyl)-4,7,10-triazatricyclo[7.4.0.02,7]trideca-1(9),10,12-trien-4-yl]quinoline-8-carbonitrile] it was 8.77. With `[2H]c1ccc2c(N3C[C@@H](C)N4Cc5nc(OC6CCNCC6)ccc5[C@H]4C3)ccc(C#N)c2n1` [Example 24, 2-Deuterio-5-[(2S,6R)-6-methyl-11-(4-piperidyloxy)-4,7,10-triazatricyclo[7.4.0.02,7]trideca-1(9),10,12-trien-4-yl]quinoline-8-carbonitrile] the figure was 9.00; with `[2H]c1ccc2c(N3C[C@@H](C)N4Cc5nc(O[C@H]6CCNC6)ccc5[C@H]4C3)ccc(C#N)c2n1` [Example 25, 2-Deuterio-5-[(2S,6R)-6-methyl-11-[(3S)-pyrrolidin-3-yl]oxy-4,7,10-triazatricyclo[7.4.0.02,7]trideca-1(9),10,12-trien-4-yl]quinoline-8-carbonitrile], 9.00.
